Source: the kinase profiling compilation of Christmann-Franck et al. (2016)

Key:
Experiment in all cases: KINOMEscan competition binding
Conditions in all cases: compound 10.0 µM
ADCK4 (human) = ADCK4 (human) (UniProt Q96D53)
AURKB (human) = AURKB (human) (UniProt Q96GD4)
BLK (human) = BLK (human) (UniProt P51451)
BMP2K (human) = BMP2K (human) (UniProt Q9NSY1)
BMPR2 (human) = BMPR2 (human) (UniProt Q13873)
CDC2L2 (human) = CDC2L2 (human) (UniProt Q9UQ88)
CDK11B (human) = CDK11B (human) (UniProt P21127)
CDK7 (human) = CDK7 (human) (UniProt P50613)
Sequence of CDK7 (human) (P50613 whole entry, looked up): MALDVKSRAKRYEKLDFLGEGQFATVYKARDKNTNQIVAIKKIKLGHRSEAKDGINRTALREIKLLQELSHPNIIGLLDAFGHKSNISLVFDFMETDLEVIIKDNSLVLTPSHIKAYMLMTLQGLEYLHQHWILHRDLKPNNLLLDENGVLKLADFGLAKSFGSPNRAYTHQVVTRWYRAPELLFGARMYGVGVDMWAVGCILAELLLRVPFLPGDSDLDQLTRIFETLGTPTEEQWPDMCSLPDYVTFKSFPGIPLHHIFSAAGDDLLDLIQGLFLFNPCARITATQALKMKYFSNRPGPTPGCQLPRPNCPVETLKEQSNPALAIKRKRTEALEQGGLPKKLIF

CLK1 (human) = CLK1 (human) (UniProt P49759)
CSNK2A2 (human) = CSNK2A2 (human) (UniProt P19784)
DMPK (human) = DMPK (human) (UniProt Q09013)
EGFR (human) = EGFR (human) (UniProt P00533)
[1] = system: EGFR (human), P00533 [752-759 del]
[2] = system: EGFR (human), P00533 [L861Q]
EPHA3 (human) = EPHA3 (human) (UniProt P29320)
EPHA7 (human) = EPHA7 (human) (UniProt Q15375)
Sequence of EPHA7 (human) (Q15375 whole entry, looked up): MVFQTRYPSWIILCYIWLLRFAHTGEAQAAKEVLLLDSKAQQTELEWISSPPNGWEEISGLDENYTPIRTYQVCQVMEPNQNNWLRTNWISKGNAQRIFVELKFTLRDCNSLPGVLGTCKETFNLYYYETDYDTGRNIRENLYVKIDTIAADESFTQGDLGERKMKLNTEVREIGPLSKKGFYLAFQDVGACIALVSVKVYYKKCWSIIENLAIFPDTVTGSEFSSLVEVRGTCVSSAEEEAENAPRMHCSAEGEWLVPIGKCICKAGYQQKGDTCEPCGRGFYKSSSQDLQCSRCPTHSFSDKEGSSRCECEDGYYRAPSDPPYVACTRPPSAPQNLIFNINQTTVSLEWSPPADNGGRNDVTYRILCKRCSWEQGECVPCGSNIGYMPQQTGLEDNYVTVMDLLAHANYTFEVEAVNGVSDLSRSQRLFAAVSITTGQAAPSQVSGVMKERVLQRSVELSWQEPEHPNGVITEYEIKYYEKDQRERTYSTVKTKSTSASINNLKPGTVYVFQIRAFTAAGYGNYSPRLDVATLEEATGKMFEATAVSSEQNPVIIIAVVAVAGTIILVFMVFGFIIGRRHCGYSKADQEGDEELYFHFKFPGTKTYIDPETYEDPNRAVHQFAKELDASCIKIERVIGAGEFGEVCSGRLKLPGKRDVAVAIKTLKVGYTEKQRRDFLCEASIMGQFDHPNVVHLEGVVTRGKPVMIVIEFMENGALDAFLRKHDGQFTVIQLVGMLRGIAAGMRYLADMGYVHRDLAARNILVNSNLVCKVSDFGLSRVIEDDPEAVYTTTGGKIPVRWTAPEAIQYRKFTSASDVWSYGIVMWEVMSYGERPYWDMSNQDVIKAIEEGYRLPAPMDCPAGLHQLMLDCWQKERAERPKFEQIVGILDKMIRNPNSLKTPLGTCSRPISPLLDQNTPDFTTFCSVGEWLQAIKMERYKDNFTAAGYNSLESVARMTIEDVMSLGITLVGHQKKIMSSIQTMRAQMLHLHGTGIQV

FLT4 (human) = FLT4 (human) (UniProt P35916)
GSK3A (human) = GSK3A (human) (UniProt P49840)
INSR (human) = INSR (human) (UniProt P06213)
IRAK3 (human) = IRAK3 (human) (UniProt Q9Y616)
LCK (human) = LCK (human) (UniProt P06239)
MAP3K4 (human) = MAP3K4 (human) (UniProt Q9Y6R4)
MAP3K5 (human) = MAP3K5 (human) (UniProt Q99683)
MAP4K3 (human) = MAP4K3 (human) (UniProt Q8IVH8)
MAPKAPK2 (human) = MAPKAPK2 (human) (UniProt P49137)
Sequence of MAPKAPK2 (human) (P49137 whole entry, looked up): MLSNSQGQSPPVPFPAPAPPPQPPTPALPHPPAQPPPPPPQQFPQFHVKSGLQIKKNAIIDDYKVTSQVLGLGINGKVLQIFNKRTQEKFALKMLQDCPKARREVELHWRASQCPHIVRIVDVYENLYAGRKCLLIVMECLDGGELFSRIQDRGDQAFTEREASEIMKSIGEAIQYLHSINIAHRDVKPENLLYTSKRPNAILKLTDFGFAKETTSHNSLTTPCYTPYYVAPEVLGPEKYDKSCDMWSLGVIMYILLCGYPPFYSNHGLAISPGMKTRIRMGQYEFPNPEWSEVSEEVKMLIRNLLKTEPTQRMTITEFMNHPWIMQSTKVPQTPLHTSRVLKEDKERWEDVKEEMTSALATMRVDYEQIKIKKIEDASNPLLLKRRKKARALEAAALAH

MARK1 (human) = MARK1 (human) (UniProt Q9P0L2)
MKNK2 (human) = MKNK2 (human) (UniProt Q9HBH9)
MYLK3 (human) = MYLK3 (human) (UniProt Q32MK0)
MYO3B (human) = MYO3B (human) (UniProt Q8WXR4)
Sequence of MYO3B (human) (Q8WXR4 whole entry, looked up): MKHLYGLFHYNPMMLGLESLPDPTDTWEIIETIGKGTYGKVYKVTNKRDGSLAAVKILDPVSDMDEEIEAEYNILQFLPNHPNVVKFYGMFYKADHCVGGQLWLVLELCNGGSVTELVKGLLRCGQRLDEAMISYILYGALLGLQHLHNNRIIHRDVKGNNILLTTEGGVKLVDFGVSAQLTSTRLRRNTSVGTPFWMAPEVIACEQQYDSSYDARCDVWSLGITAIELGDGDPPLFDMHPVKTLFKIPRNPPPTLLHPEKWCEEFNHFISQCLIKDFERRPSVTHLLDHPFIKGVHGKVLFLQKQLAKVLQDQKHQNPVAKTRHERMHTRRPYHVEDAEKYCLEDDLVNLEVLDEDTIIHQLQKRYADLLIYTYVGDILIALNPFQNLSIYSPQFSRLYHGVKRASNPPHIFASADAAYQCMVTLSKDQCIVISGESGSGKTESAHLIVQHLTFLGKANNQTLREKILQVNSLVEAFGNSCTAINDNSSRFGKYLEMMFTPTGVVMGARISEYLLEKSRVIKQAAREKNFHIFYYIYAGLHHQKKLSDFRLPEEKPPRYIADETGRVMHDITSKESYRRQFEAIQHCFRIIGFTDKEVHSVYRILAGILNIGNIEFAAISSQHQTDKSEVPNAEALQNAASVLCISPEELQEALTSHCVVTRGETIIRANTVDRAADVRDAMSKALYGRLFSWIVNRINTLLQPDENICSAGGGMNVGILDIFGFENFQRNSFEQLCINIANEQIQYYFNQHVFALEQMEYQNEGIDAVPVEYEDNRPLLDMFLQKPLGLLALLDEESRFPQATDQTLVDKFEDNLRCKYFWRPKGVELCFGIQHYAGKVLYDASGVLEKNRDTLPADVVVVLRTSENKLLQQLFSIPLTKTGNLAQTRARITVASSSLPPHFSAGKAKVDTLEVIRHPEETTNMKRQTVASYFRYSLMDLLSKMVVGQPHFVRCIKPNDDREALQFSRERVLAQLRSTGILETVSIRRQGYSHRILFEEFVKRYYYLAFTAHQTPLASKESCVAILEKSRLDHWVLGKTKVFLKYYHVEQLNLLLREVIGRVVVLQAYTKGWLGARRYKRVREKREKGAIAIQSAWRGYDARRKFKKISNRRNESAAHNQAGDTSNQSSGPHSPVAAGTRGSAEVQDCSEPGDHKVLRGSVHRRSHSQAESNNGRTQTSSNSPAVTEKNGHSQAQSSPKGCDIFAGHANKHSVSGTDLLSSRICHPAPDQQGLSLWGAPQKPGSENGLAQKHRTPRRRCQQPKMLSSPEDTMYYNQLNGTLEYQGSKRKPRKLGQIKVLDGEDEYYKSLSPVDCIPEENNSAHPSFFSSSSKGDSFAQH

NEK7 (human) = NEK7 (human) (UniProt Q8TDX7)
NTRK2 (human) = NTRK2 (human) (UniProt Q16620)
PIK3C2B (human) = PIK3C2B (human) (UniProt O00750)
RIOK2 (human) = RIOK2 (human) (UniProt Q9BVS4)
RIPK4 (human) = RIPK4 (human) (UniProt P57078)
ROS1 (human) = ROS1 (human) (UniProt P08922)
STK17B (human) = STK17B (human) (UniProt O94768)
STK25 (human) = STK25 (human) (UniProt O00506)
STK32C (human) = STK32C (human) (UniProt Q86UX6)
TAOK1 (human) = TAOK1 (human) (UniProt Q7L7X3)
TEC (human) = TEC (human) (UniProt P42680)
TESK1 (human) = TESK1 (human) (UniProt Q15569)
TNK2 (human) = TNK2 (human) (UniProt Q07912)
TXK (human) = TXK (human) (UniProt P42681)

Sequence of BLK (human) (P51451 whole entry, looked up): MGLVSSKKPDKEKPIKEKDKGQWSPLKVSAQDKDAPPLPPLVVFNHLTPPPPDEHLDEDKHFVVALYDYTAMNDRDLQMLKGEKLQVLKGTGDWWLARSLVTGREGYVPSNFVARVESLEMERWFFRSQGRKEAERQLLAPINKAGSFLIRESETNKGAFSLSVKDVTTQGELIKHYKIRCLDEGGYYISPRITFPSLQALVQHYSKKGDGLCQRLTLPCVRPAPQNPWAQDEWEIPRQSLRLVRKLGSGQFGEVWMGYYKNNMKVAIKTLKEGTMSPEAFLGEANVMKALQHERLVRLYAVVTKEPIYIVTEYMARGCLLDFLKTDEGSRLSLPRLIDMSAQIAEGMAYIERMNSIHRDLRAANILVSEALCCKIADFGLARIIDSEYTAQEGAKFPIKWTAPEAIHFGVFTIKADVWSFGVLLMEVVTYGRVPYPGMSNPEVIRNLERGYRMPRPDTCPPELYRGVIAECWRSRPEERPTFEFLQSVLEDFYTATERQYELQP
Sequence of CDC2L2 (human) (Q9UQ88 whole entry, looked up): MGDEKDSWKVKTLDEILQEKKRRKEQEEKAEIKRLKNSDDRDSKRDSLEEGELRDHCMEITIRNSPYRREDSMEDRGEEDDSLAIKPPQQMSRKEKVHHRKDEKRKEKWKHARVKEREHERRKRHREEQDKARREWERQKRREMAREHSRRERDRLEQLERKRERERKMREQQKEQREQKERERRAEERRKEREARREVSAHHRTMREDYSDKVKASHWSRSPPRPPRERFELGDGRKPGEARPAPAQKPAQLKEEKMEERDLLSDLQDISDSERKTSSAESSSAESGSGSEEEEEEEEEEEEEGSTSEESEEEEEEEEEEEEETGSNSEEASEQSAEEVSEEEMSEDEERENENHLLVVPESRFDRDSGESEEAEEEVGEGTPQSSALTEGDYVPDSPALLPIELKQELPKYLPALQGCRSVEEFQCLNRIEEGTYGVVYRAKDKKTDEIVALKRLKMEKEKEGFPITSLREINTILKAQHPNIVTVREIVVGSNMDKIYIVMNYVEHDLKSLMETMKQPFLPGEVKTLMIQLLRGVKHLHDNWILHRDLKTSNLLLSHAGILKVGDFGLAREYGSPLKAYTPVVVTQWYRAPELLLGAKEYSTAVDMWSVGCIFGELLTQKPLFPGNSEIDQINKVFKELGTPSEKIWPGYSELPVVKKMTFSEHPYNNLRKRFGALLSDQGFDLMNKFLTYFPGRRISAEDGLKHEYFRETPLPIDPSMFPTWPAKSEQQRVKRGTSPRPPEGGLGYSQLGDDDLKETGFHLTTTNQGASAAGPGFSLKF
Sequence of ADCK4 (human) (Q96D53 whole entry, looked up): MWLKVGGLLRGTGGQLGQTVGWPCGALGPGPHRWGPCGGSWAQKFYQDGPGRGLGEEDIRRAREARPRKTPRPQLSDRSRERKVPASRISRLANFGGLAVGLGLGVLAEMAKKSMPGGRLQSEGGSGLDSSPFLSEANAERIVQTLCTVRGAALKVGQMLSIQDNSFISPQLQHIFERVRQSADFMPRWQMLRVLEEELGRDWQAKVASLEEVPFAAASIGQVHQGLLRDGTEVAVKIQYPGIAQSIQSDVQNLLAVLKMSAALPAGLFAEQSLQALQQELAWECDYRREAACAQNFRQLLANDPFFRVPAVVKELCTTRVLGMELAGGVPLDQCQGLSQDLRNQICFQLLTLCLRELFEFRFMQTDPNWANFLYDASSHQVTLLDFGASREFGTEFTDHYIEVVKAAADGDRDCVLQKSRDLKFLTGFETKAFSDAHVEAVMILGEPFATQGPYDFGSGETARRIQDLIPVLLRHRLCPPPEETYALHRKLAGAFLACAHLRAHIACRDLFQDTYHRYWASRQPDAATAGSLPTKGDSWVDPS

Compound: CCN1CCN(Cc2ccc(NC(=O)c3ccc(C)c(/C=C/c4cnc(Nc5cc(N6CCNCC6)nc(C)n5)cn4)c3)cc2C(F)(F)F)CC1
- kinase still bound, per cent of control (ADCK4 (human)): 93%
- kinase still bound, per cent of control (AURKB (human)): 100%
- kinase still bound, per cent of control (BLK (human)): 0.1%
- kinase still bound, per cent of control (BMP2K (human)): 100%
- kinase still bound, per cent of control (BMPR2 (human)): 100%
- kinase still bound, per cent of control (CDC2L2 (human)): 69%
- kinase still bound, per cent of control (CDK11B (human)): 78%
- kinase still bound, per cent of control (CDK7 (human)): 3%
- kinase still bound, per cent of control (CLK1 (human)): 29%
- kinase still bound, per cent of control (CSNK2A2 (human)): 72%
- kinase still bound, per cent of control (DMPK (human)): 100%
- kinase still bound, per cent of control (EGFR (human)): 12%
- kinase still bound, per cent of control [1]: 6.2%
- kinase still bound, per cent of control [2]: 0.85%
- kinase still bound, per cent of control (EPHA3 (human)): 4.4%
- kinase still bound, per cent of control (EPHA7 (human)): 76%
- kinase still bound, per cent of control (FLT4 (human)): 26%
- kinase still bound, per cent of control (GSK3A (human)): 81%
- kinase still bound, per cent of control (INSR (human)): 65%
- kinase still bound, per cent of control (IRAK3 (human)): 87%
- kinase still bound, per cent of control (LCK (human)): 0.45%
- kinase still bound, per cent of control (MAP3K4 (human)): 2.5%
- kinase still bound, per cent of control (MAP3K5 (human)): 100%
- kinase still bound, per cent of control (MAP4K3 (human)): 0.9%
- kinase still bound, per cent of control (MAPKAPK2 (human)): 100%
- kinase still bound, per cent of control (MARK1 (human)): 100%
- kinase still bound, per cent of control (MKNK2 (human)): 18%
- kinase still bound, per cent of control (MYLK3 (human)): 59%
- kinase still bound, per cent of control (MYO3B (human)): 67%
- kinase still bound, per cent of control (NEK7 (human)): 100%
- kinase still bound, per cent of control (NTRK2 (human)): 1%
- kinase still bound, per cent of control (PIK3C2B (human)): 79%
- kinase still bound, per cent of control (RIOK2 (human)): 85%
- kinase still bound, per cent of control (RIPK4 (human)): 17%
- kinase still bound, per cent of control (ROS1 (human)): 100%
- kinase still bound, per cent of control (STK17B (human)): 2%
- kinase still bound, per cent of control (STK25 (human)): 35%
- kinase still bound, per cent of control (STK32C (human)): 96%
- kinase still bound, per cent of control (TAOK1 (human)): 7%
- kinase still bound, per cent of control (TEC (human)): 24%
- kinase still bound, per cent of control (TESK1 (human)): 23%
- kinase still bound, per cent of control (TNK2 (human)): 32%
- kinase still bound, per cent of control (TXK (human)): 4%

Compound: COc1cc(N2CCC(N3CCN(C)CC3)CC2)ccc1Nc1ncc(Cl)c(Nc2ccccc2S(=O)(=O)C(C)C)n1
- kinase still bound, per cent of control (ADCK4 (human)): 0%
- kinase still bound, per cent of control (AURKB (human)): 1%
- kinase still bound, per cent of control (BLK (human)): 0.1%
- kinase still bound, per cent of control (BMP2K (human)): 2.8%
- kinase still bound, per cent of control (BMPR2 (human)): 40%
- kinase still bound, per cent of control (CDK11B (human)): 40%
- kinase still bound, per cent of control (CDK7 (human)): 0.15%
- kinase still bound, per cent of control (CLK1 (human)): 0.4%
- kinase still bound, per cent of control (CSNK2A2 (human)): 40%
- kinase still bound, per cent of control (DMPK (human)): 1.8%
- kinase still bound, per cent of control (EGFR (human)): 0.1%
- kinase still bound, per cent of control [1]: 1.4%
- kinase still bound, per cent of control [2]: 0.15%
- kinase still bound, per cent of control (EPHA3 (human)): 40%
- kinase still bound, per cent of control (EPHA7 (human)): 0.4%
- kinase still bound, per cent of control (FLT4 (human)): 0.05%
- kinase still bound, per cent of control (GSK3A (human)): 40%
- kinase still bound, per cent of control (INSR (human)): 0%
- kinase still bound, per cent of control (IRAK3 (human)): 0.15%
- kinase still bound, per cent of control (LCK (human)): 0.1%
- kinase still bound, per cent of control (MAP3K4 (human)): 13%
- kinase still bound, per cent of control (MAP3K5 (human)): 40%
- kinase still bound, per cent of control (MAP4K3 (human)): 2.5%
- kinase still bound, per cent of control (MAPKAPK2 (human)): 40%
- kinase still bound, per cent of control (MARK1 (human)): 0%
- kinase still bound, per cent of control (MKNK2 (human)): 1.4%
- kinase still bound, per cent of control (MYLK3 (human)): 40%
- kinase still bound, per cent of control (MYO3B (human)): 0.6%
- kinase still bound, per cent of control (NEK7 (human)): 3.8%
- kinase still bound, per cent of control (NTRK2 (human)): 8.4%
- kinase still bound, per cent of control (PIK3C2B (human)): 40%
- kinase still bound, per cent of control (RIOK2 (human)): 5.3%
- kinase still bound, per cent of control (RIPK4 (human)): 40%
- kinase still bound, per cent of control (ROS1 (human)): 0.45%
- kinase still bound, per cent of control (STK17B (human)): 40%
- kinase still bound, per cent of control (STK25 (human)): 40%
- kinase still bound, per cent of control (STK32C (human)): 3.1%
- kinase still bound, per cent of control (TAOK1 (human)): 0.1%
- kinase still bound, per cent of control (TEC (human)): 0.7%
- kinase still bound, per cent of control (TESK1 (human)): 40%
- kinase still bound, per cent of control (TNK2 (human)): 0%
- kinase still bound, per cent of control (TXK (human)): 6.9%

Compound: CCOc1cc(N2CCC(N3CCCCC3)CC2)ccc1Nc1nc(Nc2ccccc2S(=O)(=O)C(C)C)c2cn[nH]c2n1
- kinase still bound, per cent of control (ADCK4 (human)): 29%
- kinase still bound, per cent of control (AURKB (human)): 100%
- kinase still bound, per cent of control (BLK (human)): 100%
- kinase still bound, per cent of control (BMP2K (human)): 47%
- kinase still bound, per cent of control (BMPR2 (human)): 85%
- kinase still bound, per cent of control (CDC2L2 (human)): 100%
- kinase still bound, per cent of control (CDK11B (human)): 100%
- kinase still bound, per cent of control (CDK7 (human)): 42%
- kinase still bound, per cent of control (CLK1 (human)): 0.4%
- kinase still bound, per cent of control (CSNK2A2 (human)): 94%
- kinase still bound, per cent of control (DMPK (human)): 70%
- kinase still bound, per cent of control (EGFR (human)): 4.1%
- kinase still bound, per cent of control [1]: 49%
- kinase still bound, per cent of control [2]: 7.7%
- kinase still bound, per cent of control (EPHA3 (human)): 100%
- kinase still bound, per cent of control (EPHA7 (human)): 100%
- kinase still bound, per cent of control (FLT4 (human)): 100%
- kinase still bound, per cent of control (GSK3A (human)): 100%
- kinase still bound, per cent of control (INSR (human)): 0.3%
- kinase still bound, per cent of control (IRAK3 (human)): 100%
- kinase still bound, per cent of control (LCK (human)): 84%
- kinase still bound, per cent of control (MAP3K4 (human)): 100%
- kinase still bound, per cent of control (MAP3K5 (human)): 100%
- kinase still bound, per cent of control (MAP4K3 (human)): 10%
- kinase still bound, per cent of control (MAPKAPK2 (human)): 100%
- kinase still bound, per cent of control (MARK1 (human)): 100%
- kinase still bound, per cent of control (MKNK2 (human)): 100%
- kinase still bound, per cent of control (MYLK3 (human)): 100%
- kinase still bound, per cent of control (MYO3B (human)): 18%
- kinase still bound, per cent of control (NEK7 (human)): 100%
- kinase still bound, per cent of control (NTRK2 (human)): 59%
- kinase still bound, per cent of control (PIK3C2B (human)): 100%
- kinase still bound, per cent of control (RIOK2 (human)): 76%
- kinase still bound, per cent of control (RIPK4 (human)): 76%
- kinase still bound, per cent of control (ROS1 (human)): 5.8%
- kinase still bound, per cent of control (STK17B (human)): 100%
- kinase still bound, per cent of control (STK25 (human)): 95%
- kinase still bound, per cent of control (STK32C (human)): 88%
- kinase still bound, per cent of control (TAOK1 (human)): 33%
- kinase still bound, per cent of control (TEC (human)): 98%
- kinase still bound, per cent of control (TESK1 (human)): 100%
- kinase still bound, per cent of control (TNK2 (human)): 3.4%
- kinase still bound, per cent of control (TXK (human)): 100%

Compound: CCN1CCN(Cc2ccc(NC(=O)c3ccc(C)c(Oc4ccnc5[nH]ccc45)c3)cc2C(F)(F)F)CC1
- kinase still bound, per cent of control (BLK (human)): 0.45%
- kinase still bound, per cent of control (CDC2L2 (human)): 0.05%
- kinase still bound, per cent of control (CDK11B (human)): 0.35%
- kinase still bound, per cent of control (CDK7 (human)): 2.4%
- kinase still bound, per cent of control (EGFR (human)): 5.6%
- kinase still bound, per cent of control [1]: 4.6%
- kinase still bound, per cent of control [2]: 15%
- kinase still bound, per cent of control (EPHA3 (human)): 3.4%
- kinase still bound, per cent of control (FLT4 (human)): 0.2%
- kinase still bound, per cent of control (INSR (human)): 30%
- kinase still bound, per cent of control (LCK (human)): 0.8%
- kinase still bound, per cent of control (MAP4K3 (human)): 18%
- kinase still bound, per cent of control (MKNK2 (human)): 4.2%
- kinase still bound, per cent of control (MYO3B (human)): 4.8%
- kinase still bound, per cent of control (TAOK1 (human)): 3%
- kinase still bound, per cent of control (TXK (human)): 12%
